One experiment deals with canine TRPM8 (Canis lupus familiaris, UniProt Q1A7N1). Description: In Vitro Canine TRPM8 Functional Assay (intracellular Ca2+ fluorescence, icilin challenge). In kind it is cell-based. Particulars: for pIC50: icilin at ~80% maximal response. The method, boiled down:
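Eight-point dose-response curves, each point averaging quadruplicate wells, gave EC50 or IC50. Canine TRPM8-expressing HEK293 cells, dye-loaded (Calcium 3), were pre-exposed 5 min to compound, then challenged with icilin at roughly EC80; intracellular Ca2+ read by FLIPR or FDSS fluorescence.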

The next experiment concerns Male Sprague Dawley rats. Description: Inhibition of Icilin-Induced "Wet-Dog" Shakes in Rats. It is filed as in vivo. Particulars: rat, dose 10, p.o. Here is the method: Similar shaking or jumping behavior was also evident in mice, rabbits, cats, dogs and monkeys. In humans, icilin produced a sensation of coolness on contact with mucous membranes, cold prickling when 0.1 mg was dropped on the tongue and coldness in the mouth, pharynx and chest lasting 30-60 minutes when 5-10 mg was ingested orally (Wei E T, Seid D A, J Pharm Pharmacol. 1983, 35, 110). The inhibition or reversal of icilin-induced shaking behaviors in rodents provides evidence for the utility of TRPM8 antagonists of the formula (I) in treating or preventing a disease, syndrome, disorder, or condition in a subject in which the disease, syndrome, disorder or condition is affected by the modulation of TRPM8 receptors.
Male Sprague Dawley rats (220-450 g, Charles River Labs, n=6-9/treatment) may be used to evaluate the ability of selected compounds of the formula (I) to block icilin-induced “wet-dog” shakes (WDS). Compounds of the formula (I) may be administered in an appropriate vehicle, such as hydroxypropyl-β-cyclodextrin (HPIβCD), methocellulose, 10% Solutol, or H2O, or the like, by the appropriate route, i.p. or p.o., 30-120 minutes before icilin. Icilin may be administered in PEG-400 or 10% solutol/H2O, at 1.0 or 3.0 mg/kg, i.p. and spontaneous “wet-dog” shakes may be counted 10-20 minutes post-icilin.

The next experiment deals with TRPM8 (Mus musculus (Mouse), UniProt Q8R4D5). Particulars: TRPM8 transfected cells (Behrendt H J et al. 2004); cited from earlier work.
Sequence of TRPM8 (Q8R4D5 whole entry): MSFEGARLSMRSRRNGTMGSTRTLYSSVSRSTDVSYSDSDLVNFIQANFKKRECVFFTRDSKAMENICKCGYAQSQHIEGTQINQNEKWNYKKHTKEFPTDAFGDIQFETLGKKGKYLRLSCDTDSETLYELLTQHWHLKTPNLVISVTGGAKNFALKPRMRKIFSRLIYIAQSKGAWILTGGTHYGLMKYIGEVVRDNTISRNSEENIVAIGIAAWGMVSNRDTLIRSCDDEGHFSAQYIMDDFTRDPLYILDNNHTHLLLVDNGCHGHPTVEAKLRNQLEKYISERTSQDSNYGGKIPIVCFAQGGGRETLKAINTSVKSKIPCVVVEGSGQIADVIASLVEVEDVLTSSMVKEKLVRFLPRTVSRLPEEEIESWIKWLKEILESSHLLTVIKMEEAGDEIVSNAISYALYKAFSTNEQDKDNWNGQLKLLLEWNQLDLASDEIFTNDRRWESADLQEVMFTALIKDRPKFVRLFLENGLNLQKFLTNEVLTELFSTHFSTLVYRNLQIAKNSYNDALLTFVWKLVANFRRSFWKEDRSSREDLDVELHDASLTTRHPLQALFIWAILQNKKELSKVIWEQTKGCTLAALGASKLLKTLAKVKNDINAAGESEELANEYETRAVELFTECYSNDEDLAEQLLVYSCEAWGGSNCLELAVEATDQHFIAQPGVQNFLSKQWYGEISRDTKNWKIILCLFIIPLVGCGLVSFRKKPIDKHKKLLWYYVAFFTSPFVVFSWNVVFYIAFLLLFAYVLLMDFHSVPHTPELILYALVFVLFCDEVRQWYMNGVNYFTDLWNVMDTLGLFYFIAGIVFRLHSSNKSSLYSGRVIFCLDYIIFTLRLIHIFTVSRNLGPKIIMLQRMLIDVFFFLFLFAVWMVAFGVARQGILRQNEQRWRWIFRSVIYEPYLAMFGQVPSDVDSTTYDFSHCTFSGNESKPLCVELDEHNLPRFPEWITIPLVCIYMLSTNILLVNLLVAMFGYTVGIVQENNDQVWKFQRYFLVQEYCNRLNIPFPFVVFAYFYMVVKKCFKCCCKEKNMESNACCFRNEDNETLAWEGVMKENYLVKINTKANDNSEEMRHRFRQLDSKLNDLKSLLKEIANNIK
Setting [1] is: HEK293 cells stably expressing canine TRPM8.
[2] abbreviates: HEK293, @ 0.2 μM, HEK293 cells stably expressing canine TRPM8, read-out: % Inh (%) @ 0.2 μM.
Setting [3] is: vehicle 20% HPβCD, form CO2−Na+.
Setting [4] is: HEK293, read-out: % Inh (%) @ 0.2 μM.

pEC50, pIC50: −log10 of the molar value. Where “and” joins values, the source holds several entries; their conditions need not be identical. Equal values may be shown once. Read-outs that look alike come from different tables or passages of the source.

Sequence of canine TRPM8 (Q1A7N1 1-1104): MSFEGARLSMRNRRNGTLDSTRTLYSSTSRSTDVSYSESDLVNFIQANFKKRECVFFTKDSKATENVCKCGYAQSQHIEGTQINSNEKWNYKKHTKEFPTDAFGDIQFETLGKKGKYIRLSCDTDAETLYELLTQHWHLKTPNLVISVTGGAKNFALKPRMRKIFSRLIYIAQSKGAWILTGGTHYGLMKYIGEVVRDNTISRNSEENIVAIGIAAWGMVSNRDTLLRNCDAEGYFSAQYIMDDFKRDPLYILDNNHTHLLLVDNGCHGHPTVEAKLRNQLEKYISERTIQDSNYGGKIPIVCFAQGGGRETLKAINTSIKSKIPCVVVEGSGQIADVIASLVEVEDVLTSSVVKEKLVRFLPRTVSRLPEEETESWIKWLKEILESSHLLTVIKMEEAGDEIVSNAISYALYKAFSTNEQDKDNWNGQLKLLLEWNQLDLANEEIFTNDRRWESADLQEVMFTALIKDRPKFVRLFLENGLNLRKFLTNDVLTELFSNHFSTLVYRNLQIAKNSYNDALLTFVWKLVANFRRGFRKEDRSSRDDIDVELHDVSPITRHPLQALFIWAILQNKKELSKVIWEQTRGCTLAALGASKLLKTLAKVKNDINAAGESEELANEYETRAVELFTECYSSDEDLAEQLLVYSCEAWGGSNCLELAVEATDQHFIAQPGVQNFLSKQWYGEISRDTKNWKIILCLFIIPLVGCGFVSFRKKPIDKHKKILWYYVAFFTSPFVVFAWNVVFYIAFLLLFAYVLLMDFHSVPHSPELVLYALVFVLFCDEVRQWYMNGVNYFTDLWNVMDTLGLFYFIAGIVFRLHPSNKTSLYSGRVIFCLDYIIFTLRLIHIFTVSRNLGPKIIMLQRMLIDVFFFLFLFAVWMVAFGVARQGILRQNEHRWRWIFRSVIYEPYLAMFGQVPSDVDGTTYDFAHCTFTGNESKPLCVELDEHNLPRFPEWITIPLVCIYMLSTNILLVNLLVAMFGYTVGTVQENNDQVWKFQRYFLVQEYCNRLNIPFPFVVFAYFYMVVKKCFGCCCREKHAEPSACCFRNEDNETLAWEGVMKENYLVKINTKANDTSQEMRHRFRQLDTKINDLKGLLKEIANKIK

For the compound `O=S(=O)(c1ccccc1)N(Cc1ccc(F)c(C(F)(F)F)c1)c1nc2ccc(Cl)cn2c1Cl` [Compound 8], at canine TRPM8 (setting [1]), the “% Inh (%) @ 0.2 μM” value is listed as 96%; the pIC50 was 7.74 and 7.63 and 7.54. In addition, the inhibition at 0.2 µM on canine TRPM8 (setting [2]) amounted to 97%. The “% Inhibition” value in the experiment on Male Sprague Dawley rats (vehicle 10% Solutol, form Hydrochloride) was 15.5%.
For the compound `Cc1c(N(Cc2ccc(C(F)(F)F)c(F)c2)S(=O)(=O)c2ccccc2)nc2ccc(Cl)cn12` [Compound 38], the inhibition at 0.2 µM at canine TRPM8 (setting [2]) was determined as 100%. For the same compound, in the experiment with Male Sprague Dawley rats (vehicle 20% HPβCD, form Hydrochloride), the “% Inhibition” value amounted to 6.5%.
Take `Cc1c(N(Cc2ccc(OC(F)(F)F)cc2)S(=O)(=O)c2ccc(C(=O)[O-])cc2)nc2ccccn12.[Na+]` [Compound 107]: at canine TRPM8 (setting [1]), the “% Inh (%) @ 0.2 μM” value is recorded as 101% and the pIC50 is 8.25. The “% Inhibition” value in the experiment with Male Sprague Dawley rats (setting [3]) is −20.6%.
The corresponding values for `CC(C)c1c(N(Cc2ccc(OC(F)(F)F)cc2)S(=O)(=O)c2ccc(C(=O)[O-])cc2)nc2ccccn12.[Na+]` [Compound 109] are 101%, 8.64 and −7.5%.
Regarding `Cc1c(N(Cc2ccc(OC(F)(F)F)cc2)S(=O)(=O)c2ccc(C(=O)O)cc2)nc2ccc(F)cn12` [Compound 120, Sodium 4-(N-(6-fluoro-3-methylimidazo[1,2-a]pyridin-2-yl)-N-(4-(trifluoromethoxy)benzyl)sulfamoyl)benzoate], at canine TRPM8 (setting [4]), the inhibition at 0.2 µM is 102%. The pIC50 against canine TRPM8 (setting [1]) is 7.91.
For `Cc1c(N(Cc2ccc(F)c(C(F)(F)F)c2)S(=O)(=O)c2ccc(C(=O)O)cc2)nc2ccc(F)cn12` [Compound 121, Sodium 4-(N-(6-fluoro-3-methylimidazo[1,2-a]pyridin-2-yl)-N-(4-fluoro-3-(trifluoromethyl)benzyl)sulfamoyl)benzoate], in that order: 101% and 7.48.
For `Cc1c(N(Cc2ccc(OC(F)(F)F)cc2)S(=O)(=O)c2ccc(C(=O)O)cc2)nc2c(F)cccn12` [Compound 122], at canine TRPM8 (setting [1]), the “% Inh (%) @ 0.2 μM” value came out at 99% and the pIC50 was 8.39.
With `O=C1NC(c2cccc([N+](=O)[O-])c2)=CCN1c1ccccc1O` [icilin], the pEC50 on TRPM8 is 6.70.

A word on the pIC50: it is the negative decadic logarithm of the IC50, by convention in mol/L. Lower therefore signals a large IC50. What is called % Inhibition is the drop in the measured response relative to a control, in per cent. Usually pEC50 stands for the EC50 on a negative log10 scale, so that one unit is a factor of ten.

Values taken from patent US9067935B2 (Janssen Pharmaceutica, NV, priority 2010, dated 2015).
